The results in this text go back to ChEMBL document CHEMBL4390695, “Veratric acid derivatives containing benzylidene-hydrazine moieties as promising tyrosinase inhibitors and free radical scavengers” (Bioorg Med Chem, 2019).

The source made the active and inactive calls. The calls are words filed in the database; no cut-off is given here. Bounds are passed on as bounds.

One series concerns the target T1, Tyrosinase (Agaricus bisporus, UniProt O42713).
T1 sequence (O42713 whole entry): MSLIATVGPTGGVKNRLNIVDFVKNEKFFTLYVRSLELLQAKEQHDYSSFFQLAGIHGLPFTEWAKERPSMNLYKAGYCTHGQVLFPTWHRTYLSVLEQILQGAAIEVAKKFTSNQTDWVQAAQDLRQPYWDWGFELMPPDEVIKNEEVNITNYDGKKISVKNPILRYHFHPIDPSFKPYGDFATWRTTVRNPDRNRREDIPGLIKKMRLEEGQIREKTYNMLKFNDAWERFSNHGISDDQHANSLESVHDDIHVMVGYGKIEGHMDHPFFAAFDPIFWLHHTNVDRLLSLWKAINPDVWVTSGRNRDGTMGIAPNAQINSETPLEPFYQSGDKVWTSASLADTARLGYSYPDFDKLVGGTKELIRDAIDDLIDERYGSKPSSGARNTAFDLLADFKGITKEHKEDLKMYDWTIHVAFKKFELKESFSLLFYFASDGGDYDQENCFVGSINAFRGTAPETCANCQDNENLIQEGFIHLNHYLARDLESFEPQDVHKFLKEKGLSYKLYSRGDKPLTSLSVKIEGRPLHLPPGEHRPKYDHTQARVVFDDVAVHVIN
Briefly: Inhibition of mushroom tyrosinase assessed as reduction in dopachrome formation using L-DOPA as substrate preincubated for 20 mins followed by substrate addition by spectrophotometry.

The target of series [1] is T2, Tyrosinase (Agaricus bisporus) (UniProt O42713).
T2 sequence (whole entry): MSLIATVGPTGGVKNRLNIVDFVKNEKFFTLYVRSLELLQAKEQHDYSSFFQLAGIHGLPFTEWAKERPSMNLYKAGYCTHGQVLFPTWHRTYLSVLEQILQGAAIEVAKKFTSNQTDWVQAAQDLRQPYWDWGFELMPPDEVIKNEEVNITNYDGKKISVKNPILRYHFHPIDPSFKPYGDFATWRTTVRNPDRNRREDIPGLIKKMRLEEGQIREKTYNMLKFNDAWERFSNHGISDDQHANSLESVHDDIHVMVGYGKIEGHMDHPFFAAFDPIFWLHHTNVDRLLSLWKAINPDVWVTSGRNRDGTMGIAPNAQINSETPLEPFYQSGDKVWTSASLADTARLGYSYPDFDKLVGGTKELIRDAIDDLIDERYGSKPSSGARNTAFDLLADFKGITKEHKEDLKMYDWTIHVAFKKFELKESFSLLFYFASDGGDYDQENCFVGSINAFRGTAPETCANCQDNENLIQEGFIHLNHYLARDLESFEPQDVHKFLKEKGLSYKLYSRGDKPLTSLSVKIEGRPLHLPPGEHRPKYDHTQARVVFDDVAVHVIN
Briefly: Competitive inhibition of mushroom tyrosinase assessed as reduction in dopachrome formation at 50 uM using L-DOPA as substrate preincubated for 20 mins followed by substrate addition by spectrophotometry based Lineweaver-Burk plot analysis.

Compound in series [2]: COc1ccc(C(=O)N/N=C/c2ccc(Cl)cc2)cc1OC
The experiment in a line: Competitive inhibition of mushroom tyrosinase assessed as reduction in dopachrome formation by measuring substrate Vmax at 50 uM using L-DOPA as substrate preincubated for 20 mins followed by substrate addition by spectrophotometry based Lineweaver-Burk plot analysis (reference value: […] mM/min). As to conditions: Agaricus bisporus.

Compound in series [3]: COc1ccc(C(=O)N/N=C/c2ccc(Cl)cc2)cc1OC
The experiment in a line: Competitive inhibition of mushroom tyrosinase assessed as reduction in dopachrome formation by measuring substrate Km at 50 uM using L-DOPA as substrate preincubated for 20 mins followed by substrate addition by spectrophotometry based Lineweaver-Burk plot analysis (reference value: […] mM). Particulars: Agaricus bisporus.

What is called IC50 is the concentration needed to halve the response being measured. A word on the Vmax: it is the top rate of the reaction or transport when substrate is in excess. As a reminder, the Km is the concentration of substrate that gives half-maximal velocity.

For `COc1ccc(C(=O)N/N=C/c2cccc(O)c2O)cc1OC`, the IC50 at Tyrosinase was determined as 20.6 µM. Take `COc1ccc(C(=O)N/N=C/c2ccc(N(C)C)cc2)cc1OC`: at Tyrosinase, the IC50 was more than 50 µM. With `COc1ccc(C(=O)N/N=C/c2ccc(OC(C)=O)c(OC)c2)cc1OC`, at Tyrosinase, the IC50 is 28.3 µM. With `COc1cc(/C=N/NC(=O)c2ccc(OC)c(OC)c2)ccc1O`, at Tyrosinase, the IC50 was more than 50 µM.

For the molecule `COc1ccc(C(=O)N/N=C/c2ccc(O)cc2O)cc1OC`, the IC50 on Tyrosinase was determined as 31.5 µM.

`CCOc1cc(/C=N/NC(=O)c2ccc(OC)c(OC)c2)ccc1O`: the IC50 at Tyrosinase is more than 50 µM.

Take `COc1ccc(C(=O)N/N=C/c2cc(OC)c(O)c(OC)c2)cc1OC`: the IC50 at Tyrosinase was more than 50 µM.

As for `COc1ccc(/C=N/NC(=O)c2ccc(OC)c(OC)c2)cc1`, the IC50 on Tyrosinase is more than 50 µM. For `COc1ccc(C(=O)N/N=C/c2cccc([N+](=O)[O-])c2)cc1OC`, the IC50 at Tyrosinase is more than 50 µM.

As to `COc1ccc(C(=O)N/N=C/c2cc(OC)c(OC)c(OC)c2)cc1OC`, the IC50 on Tyrosinase turned out to be 37.4 µM.

In the case of `COc1ccc(C(=O)N/N=C/c2ccc(Br)cc2)cc1OC`, the IC50 on Tyrosinase was more than 50 µM.

With `COc1ccccc1/C=N/NC(=O)c1ccc(OC)c(OC)c1`, the IC50 on Tyrosinase worked out at 35.2 µM. On the same count and under the same terms, then `COc1ccc(/C=N/NC(=O)c2ccc(OC)c(OC)c2)cc1OC`, with more than 50 µM; and `COc1ccc(C(=O)N/N=C/c2ccc([N+](=O)[O-])cc2)cc1OC`, with more than 50 µM.

With `COc1ccc(C(=O)N/N=C/c2ccc(Cl)cc2)cc1OC`, the IC50 at Tyrosinase is 19.7 µM. In addition, the inhibition entry in series [1] is “Active”.

As to `COc1ccc(C(=O)N/N=C/c2ccc(O)cc2)cc1OC`, on Tyrosinase, the IC50 is more than 50 µM.

B1: Tyrosinase (Agaricus bisporus), O42713 (protein)
chain: MSLIATVGPTGGVKNRLNIVDFVKNEKFFTLYVRSLELLQAKEQHDYSSFFQLAGIHGLPFTEWAKERPSMNLYKAGYCTHGQVLFPTWHRTYLSVLEQILQGAAIEVAKKFTSNQTDWVQAAQDLRQPYWDWGFELMPPDEVIKNEEVNITNYDGKKISVKNPILRYHFHPIDPSFKPYGDFATWRTTVRNPDRNRREDIPGLIKKMRLEEGQIREKTYNMLKFNDAWERFSNHGISDDQHANSLESVHDDIHVMVGYGKIEGHMDHPFFAAFDPIFWLHHTNVDRLLSLWKAINPDVWVTSGRNRDGTMGIAPNAQINSETPLEPFYQSGDKVWTSASLADTARLGYSYPDFDKLVGGTKELIRDAIDDLIDERYGSKPSSGARNTAFDLLADFKGITKEHKEDLKMYDWTIHVAFKKFELKESFSLLFYFASDGGDYDQENCFVGSINAFRGTAPETCANCQDNENLIQEGFIHLNHYLARDLESFEPQDVHKFLKEKGLSYKLYSRGDKPLTSLSVKIEGRPLHLPPGEHRPKYDHTQARVVFDDVAVHVIN
B1: in series [2], the Vmax came to 0.15 mM/min. In addition, in series [3], the Km was 5.88 mM.
